According to paper PMC4441267:

Experiments:
[1] = CuAAC macrocyclisation to 1,4-triazole (CuI 2 eq, DIPEA 3 eq), Boc retained; settings: THF (reflux), 1.2 mM, 66.0 °C, 18.0 h
[2] = CuAAC macrocyclisation of azide/terminal alkyne linear peptidomimetics to 1,4-triazole (CuI 2 eq, DIPEA 3 eq, Ar-degassed), then Boc removal (TMSCl/MeOH GP4; HCl/dioxane GP5 for A13w, J13w); settings: THF (reflux), 1.2 mM, 66.0 °C, 18.0 h, 2 steps

## COC(=O)[C@@H]1CCCCn2cc(nn2)CCCC(=O)NC[C@H](NC(=O)OC(C)(C)C)C(=O)N[C@H](C(=O)OC)CCC(=O)N1 [Boc-Dap(5-hexynoyl)-Glu(gamma-Lys(N3)-OMe)-OMe]
[1]; from C#CCCCC(=O)NC[C@H](NC(=O)OC(C)(C)C)C(=O)N[C@@H](CCC(=O)N[C@@H](CCCCN=[N+]=[N-])C(=O)OC)C(=O)OC, 22-membered ring
  ring closure, isolated yield: 69%

## COC(=O)[C@@H]1CCCCn2cc(nn2)CCCC(=O)NCCCC[C@H](NC(=O)OC(C)(C)C)C(=O)N[C@H](C(=O)OC)CCC(=O)N1 [Boc-Lys(5-hexynoyl)-Glu(gamma-Lys(N3)-OMe)-OMe]
[1]; from C#CCCCC(=O)NCCCC[C@H](NC(=O)OC(C)(C)C)C(=O)N[C@@H](CCC(=O)N[C@@H](CCCCN=[N+]=[N-])C(=O)OC)C(=O)OC, 25-membered ring
  ring closure, isolated yield: 70%

## COC(=O)[C@@H]1CCCCn2cc(nn2)CCCC(=O)Nc2ccc(cc2)C[C@H](NC(=O)OC(C)(C)C)C(=O)N[C@H](C(=O)OC)CCC(=O)N1 [Boc-Phe(4-NH-5-hexynoyl)-Glu(gamma-Lys(N3)-OMe)-OMe]
[1]; from C#CCCCC(=O)Nc1ccc(C[C@H](NC(=O)OC(C)(C)C)C(=O)N[C@@H](CCC(=O)N[C@@H](CCCCN=[N+]=[N-])C(=O)OC)C(=O)OC)cc1, 26-membered ring
  ring closure, isolated yield: 12%

## COC(=O)[C@@H]1CCCCn2cc(nn2)CCC(=O)NC[C@H](NC(=O)OC(C)(C)C)C(=O)N[C@H](C(=O)OC)CCC(=O)N1 [Boc-Dap(4-pentynoyl)-Glu(gamma-Lys(N3)-OMe)-OMe]
[1]; from C#CCCC(=O)NC[C@H](NC(=O)OC(C)(C)C)C(=O)N[C@@H](CCC(=O)N[C@@H](CCCCN=[N+]=[N-])C(=O)OC)C(=O)OC, 21-membered ring
  ring closure, isolated yield: 94%

## COC(=O)[C@@H]1CCCCn2cc(nn2)CCC(=O)NCCCC[C@H](NC(=O)OC(C)(C)C)C(=O)N[C@H](C(=O)OC)CCC(=O)N1 [Boc-Lys(4-pentynoyl)-Glu(gamma-Lys(N3)-OMe)-OMe]
[1]; from C#CCCC(=O)NCCCC[C@H](NC(=O)OC(C)(C)C)C(=O)N[C@@H](CCC(=O)N[C@@H](CCCCN=[N+]=[N-])C(=O)OC)C(=O)OC, 24-membered ring
  ring closure, isolated yield: 69%

## COC(=O)[C@@H]1CCCCn2cc(nn2)CNC(=O)NCC[C@H](NC(=O)OC(C)(C)C)C(=O)N[C@H](C(=O)OC)CCC(=O)N1 [Boc-Dab(CONH-propargyl)-Glu(gamma-Lys(N3)-OMe)-OMe]
[1]; from C#CCNC(=O)NCC[C@H](NC(=O)OC(C)(C)C)C(=O)N[C@@H](CCC(=O)N[C@@H](CCCCN=[N+]=[N-])C(=O)OC)C(=O)OC, 22-membered ring
  ring closure, isolated yield: 67%

## COC(=O)[C@@H]1CCCCn2cc(nn2)CNC(=O)NCCCC[C@H](NC(=O)OC(C)(C)C)C(=O)N[C@H](C(=O)OC)CCC(=O)N1 [Boc-Lys(CONH-propargyl)-Glu(gamma-Lys(N3)-OMe)-OMe]
[1]; from C#CCNC(=O)NCCCC[C@H](NC(=O)OC(C)(C)C)C(=O)N[C@@H](CCC(=O)N[C@@H](CCCCN=[N+]=[N-])C(=O)OC)C(=O)OC, 24-membered ring
  ring closure, isolated yield: 62%

## COC(=O)[C@@H]1CCCCn2cc(nn2)CNC(=O)NC[C@H](NC(=O)OC(C)(C)C)C(=O)N[C@H](C(=O)OC)CCC(=O)N1 [Boc-Dap(CONH-propargyl)-Glu(gamma-Lys(N3)-OMe)-OMe]
[1]; from C#CCNC(=O)NC[C@H](NC(=O)OC(C)(C)C)C(=O)N[C@@H](CCC(=O)N[C@@H](CCCCN=[N+]=[N-])C(=O)OC)C(=O)OC, 21-membered ring
  ring closure, isolated yield: 99%

## COC(=O)[C@@H]1CCCCn2cc(nn2)CCCC(=O)NCCC[C@H](NC(=O)OC(C)(C)C)C(=O)N[C@H](C(=O)OC)CCC(=O)N1 [Boc-Orn(5-hexynoyl)-Glu(gamma-Lys(N3)-OMe)-OMe]
[1]; from C#CCCCC(=O)NCCC[C@H](NC(=O)OC(C)(C)C)C(=O)N[C@@H](CCC(=O)N[C@@H](CCCCN=[N+]=[N-])C(=O)OC)C(=O)OC, 24-membered ring
  ring closure, isolated yield: 99%

## COC(=O)[C@@H]1CCCCn2cc(nn2)CNC(=O)NCCC[C@H](NC(=O)OC(C)(C)C)C(=O)N[C@H](C(=O)OC)CCC(=O)N1 [Boc-Orn(CONH-propargyl)-Glu(gamma-Lys(N3)-OMe)-OMe]
[1]; from C#CCNC(=O)NCCC[C@H](NC(=O)OC(C)(C)C)C(=O)N[C@@H](CCC(=O)N[C@@H](CCCCN=[N+]=[N-])C(=O)OC)C(=O)OC, 23-membered ring
  ring closure, isolated yield: 60%

## COC(=O)[C@@H]1CCCn2cc(nn2)CCCC(=O)NCCCC[C@H](NC(=O)OC(C)(C)C)C(=O)N1 [Boc-Lys(5-hexynoyl)-Orn(N3)-OMe]
[2]; from C#CCCCC(=O)NCCCC[C@H](NC(=O)OC(C)(C)C)C(=O)N[C@@H](CCCN=[N+]=[N-])C(=O)OC, 19-membered ring
  ring closure, yield over several steps: 40%

## COC(=O)[C@@H]1CCCCNC(=O)[C@H](Cc2ccccc2)n2cc(nn2)CCC(=O)NCCC[C@H](NC(=O)OC(C)(C)C)C(=O)N1 [Boc-Orn(4-pentynoyl)-Lys(N3-Phe)-OMe]
[2]; from C#CCCC(=O)NCCC[C@H](NC(=O)OC(C)(C)C)C(=O)N[C@@H](CCCCNC(=O)[C@H](Cc1ccccc1)N=[N+]=[N-])C(=O)OC, 21-membered ring
  ring closure, yield over several steps: 88%

## COC(=O)[C@@H]1CCCCn2cc(nn2)CCC(=O)NCCCC[C@H](NC(=O)OC(C)(C)C)C(=O)N1 [Boc-Lys(4-pentynoyl)-Lys(N3)-OMe]
[2]; from C#CCCC(=O)NCCCC[C@H](NC(=O)OC(C)(C)C)C(=O)N[C@@H](CCCCN=[N+]=[N-])C(=O)OC, 19-membered ring
  ring closure, yield over several steps: 30%

## COC(=O)[C@@H]1CCCCn2cc(nn2)CNC(=O)NC[C@H](NC(=O)OC(C)(C)C)C(=O)N1 [Boc-Dap(CONH-propargyl)-Lys(N3)-OMe]
[2]; from C#CCNC(=O)NC[C@H](NC(=O)OC(C)(C)C)C(=O)N[C@@H](CCCCN=[N+]=[N-])C(=O)OC, 16-membered ring
  ring closure, yield over several steps: 56%

## COC(=O)[C@@H]1CCCn2cc(nn2)CNC(=O)NCCCC[C@H](NC(=O)OC(C)(C)C)C(=O)N1 [Boc-Lys(CONH-propargyl)-Orn(N3)-OMe]
[2]; from C#CCNC(=O)NCCCC[C@H](NC(=O)OC(C)(C)C)C(=O)N[C@@H](CCCN=[N+]=[N-])C(=O)OC, 18-membered ring
  ring closure, yield over several steps: 93%

## COC(=O)[C@@H]1CCCn2cc(nn2)CCCC(=O)NC[C@H](NC(=O)OC(C)(C)C)C(=O)N1 [Boc-Dap(5-hexynoyl)-Orn(N3)-OMe]
[2]; from C#CCCCC(=O)NC[C@H](NC(=O)OC(C)(C)C)C(=O)N[C@@H](CCCN=[N+]=[N-])C(=O)OC, 16-membered ring
  ring closure, yield over several steps: 52%

## COC(=O)[C@@H]1CCCn2cc(nn2)CNC(=O)NCCC[C@H](NC(=O)OC(C)(C)C)C(=O)N1 [Boc-Orn(CONH-propargyl)-Orn(N3)-OMe]
[2]; from C#CCNC(=O)NCCC[C@H](NC(=O)OC(C)(C)C)C(=O)N[C@@H](CCCN=[N+]=[N-])C(=O)OC, 17-membered ring
  ring closure, yield over several steps: 99%

## COC(=O)[C@@H]1CCCn2cc(nn2)CCC(=O)NCCCC[C@H](NC(=O)OC(C)(C)C)C(=O)N[C@H](C(=O)OC)CCC(=O)N1 [Boc-Lys(4-pentynoyl)-Glu(gamma-Orn(N3)-OMe)-OMe]
[2]; from C#CCCC(=O)NCCCC[C@H](NC(=O)OC(C)(C)C)C(=O)N[C@@H](CCC(=O)N[C@@H](CCCN=[N+]=[N-])C(=O)OC)C(=O)OC, 23-membered ring
  ring closure, yield over several steps: 86%

## COC(=O)[C@@H]1CCCCn2cc(nn2)CCC(=O)NCCC[C@H](NC(=O)OC(C)(C)C)C(=O)N[C@H](C(=O)OC)CCC(=O)N1 [Boc-Orn(4-pentynoyl)-Glu(gamma-Lys(N3)-OMe)-OMe]
[1]; from C#CCCC(=O)NCCC[C@H](NC(=O)OC(C)(C)C)C(=O)N[C@@H](CCC(=O)N[C@@H](CCCCN=[N+]=[N-])C(=O)OC)C(=O)OC, 23-membered ring
  ring closure, isolated yield: 71%

## COC(=O)[C@@H]1CNC(=O)[C@H](Cc2ccccc2)n2cc(nn2)CNC(=O)NCC[C@H](NC(=O)OC(C)(C)C)C(=O)N1 [Boc-Dab(CONH-propargyl)-Dap(N3-Phe)-OMe]
[2]; from C#CCNC(=O)NCC[C@H](NC(=O)OC(C)(C)C)C(=O)N[C@@H](CNC(=O)[C@H](Cc1ccccc1)N=[N+]=[N-])C(=O)OC, 17-membered ring
  ring closure, yield over several steps: 64%
